In ChEMBL document CHEMBL5291721, “A preclinical secondary pharmacology resource illuminates target-adverse drug reaction associations of marketed drugs” (Nat Commun, 2023):

Experiments:
Androgen receptor = target: T1, Androgen receptor (Homo sapiens, UniProt P10275)
T1 sequence (P10275 whole entry): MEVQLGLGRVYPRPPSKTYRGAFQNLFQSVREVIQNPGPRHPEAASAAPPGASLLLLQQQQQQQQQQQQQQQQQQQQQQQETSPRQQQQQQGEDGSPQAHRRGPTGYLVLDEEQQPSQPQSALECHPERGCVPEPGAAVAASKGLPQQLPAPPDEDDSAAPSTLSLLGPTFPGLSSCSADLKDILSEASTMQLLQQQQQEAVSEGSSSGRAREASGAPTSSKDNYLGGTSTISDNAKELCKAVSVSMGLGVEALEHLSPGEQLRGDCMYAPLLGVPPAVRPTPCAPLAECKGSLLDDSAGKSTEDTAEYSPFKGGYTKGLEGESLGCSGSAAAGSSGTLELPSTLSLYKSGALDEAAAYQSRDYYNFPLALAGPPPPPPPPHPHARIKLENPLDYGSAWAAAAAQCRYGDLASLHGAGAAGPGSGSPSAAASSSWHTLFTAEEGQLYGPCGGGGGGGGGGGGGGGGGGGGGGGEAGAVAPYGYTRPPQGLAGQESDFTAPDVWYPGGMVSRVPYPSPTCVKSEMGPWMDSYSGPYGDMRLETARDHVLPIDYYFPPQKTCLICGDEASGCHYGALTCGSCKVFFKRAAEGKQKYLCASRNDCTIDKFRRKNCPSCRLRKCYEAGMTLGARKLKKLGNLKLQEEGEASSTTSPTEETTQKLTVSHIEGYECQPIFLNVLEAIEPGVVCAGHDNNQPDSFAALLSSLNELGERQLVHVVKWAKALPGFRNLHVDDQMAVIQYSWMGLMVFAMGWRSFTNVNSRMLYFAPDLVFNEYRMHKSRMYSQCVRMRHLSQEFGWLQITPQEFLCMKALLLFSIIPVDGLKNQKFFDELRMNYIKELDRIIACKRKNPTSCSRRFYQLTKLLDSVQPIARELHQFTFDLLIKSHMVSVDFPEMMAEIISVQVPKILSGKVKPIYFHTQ

[1] = target: T2, Alpha-1A adrenergic receptor (Homo sapiens, UniProt P35348)
T2 sequence (P35348 whole entry): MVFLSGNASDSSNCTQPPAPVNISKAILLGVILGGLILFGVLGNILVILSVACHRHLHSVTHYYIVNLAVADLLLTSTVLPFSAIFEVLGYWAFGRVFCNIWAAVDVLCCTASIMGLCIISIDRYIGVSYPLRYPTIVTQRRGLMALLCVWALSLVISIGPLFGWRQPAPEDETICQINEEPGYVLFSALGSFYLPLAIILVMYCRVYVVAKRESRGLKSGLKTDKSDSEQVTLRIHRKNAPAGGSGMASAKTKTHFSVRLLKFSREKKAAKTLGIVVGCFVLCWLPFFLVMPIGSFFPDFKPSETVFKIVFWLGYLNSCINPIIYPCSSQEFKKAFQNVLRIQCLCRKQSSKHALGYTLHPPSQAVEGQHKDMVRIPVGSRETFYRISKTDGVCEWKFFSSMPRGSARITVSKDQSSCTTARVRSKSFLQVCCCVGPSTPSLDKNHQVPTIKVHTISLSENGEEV

Thromboxane A2 receptor = target: T3, Thromboxane A2 receptor (Homo sapiens, UniProt P21731)
T3 sequence (P21731 whole entry): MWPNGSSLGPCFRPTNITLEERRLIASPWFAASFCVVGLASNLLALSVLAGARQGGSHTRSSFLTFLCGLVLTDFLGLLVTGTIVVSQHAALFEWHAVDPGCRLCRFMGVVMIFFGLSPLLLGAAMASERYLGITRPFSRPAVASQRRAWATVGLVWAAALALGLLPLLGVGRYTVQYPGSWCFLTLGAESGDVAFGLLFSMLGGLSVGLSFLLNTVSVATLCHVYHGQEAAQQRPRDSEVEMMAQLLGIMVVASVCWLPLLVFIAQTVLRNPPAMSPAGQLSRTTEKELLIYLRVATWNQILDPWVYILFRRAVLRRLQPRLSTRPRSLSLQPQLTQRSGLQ

[2] = target: T4, Gastrin/cholecystokinin type B receptor (Homo sapiens, UniProt P32239)
T4 sequence (P32239 whole entry): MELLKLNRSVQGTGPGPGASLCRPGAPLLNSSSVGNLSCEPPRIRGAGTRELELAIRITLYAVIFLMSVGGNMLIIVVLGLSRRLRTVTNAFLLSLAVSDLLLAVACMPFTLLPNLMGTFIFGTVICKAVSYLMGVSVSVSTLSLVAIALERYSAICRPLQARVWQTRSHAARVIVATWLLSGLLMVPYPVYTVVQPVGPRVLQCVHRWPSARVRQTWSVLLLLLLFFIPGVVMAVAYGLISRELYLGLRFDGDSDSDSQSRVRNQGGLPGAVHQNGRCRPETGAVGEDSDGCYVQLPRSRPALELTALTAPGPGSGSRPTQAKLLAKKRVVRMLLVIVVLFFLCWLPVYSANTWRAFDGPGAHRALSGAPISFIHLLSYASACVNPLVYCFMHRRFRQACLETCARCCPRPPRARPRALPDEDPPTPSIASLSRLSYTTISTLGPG

Cannabinoid receptor 1 [3] = target: T5, Cannabinoid receptor 1 (Homo sapiens, UniProt P21554); type: functional, cell-based
Cannabinoid receptor 1 [4] = target: T5, Cannabinoid receptor 1; type: functional, cell-based; remark: listed apart in the source
[5] = target: Prostaglandin G/H synthase 1 (Homo sapiens, UniProt P23219); type: functional
Vasopressin V1a receptor = Vasopressin V1a receptor (Homo sapiens, UniProt P37288)
[6] = target: T6, Muscarinic acetylcholine receptor M1 (Homo sapiens, UniProt P11229); type: functional, cell-based
T6 sequence (P11229 whole entry): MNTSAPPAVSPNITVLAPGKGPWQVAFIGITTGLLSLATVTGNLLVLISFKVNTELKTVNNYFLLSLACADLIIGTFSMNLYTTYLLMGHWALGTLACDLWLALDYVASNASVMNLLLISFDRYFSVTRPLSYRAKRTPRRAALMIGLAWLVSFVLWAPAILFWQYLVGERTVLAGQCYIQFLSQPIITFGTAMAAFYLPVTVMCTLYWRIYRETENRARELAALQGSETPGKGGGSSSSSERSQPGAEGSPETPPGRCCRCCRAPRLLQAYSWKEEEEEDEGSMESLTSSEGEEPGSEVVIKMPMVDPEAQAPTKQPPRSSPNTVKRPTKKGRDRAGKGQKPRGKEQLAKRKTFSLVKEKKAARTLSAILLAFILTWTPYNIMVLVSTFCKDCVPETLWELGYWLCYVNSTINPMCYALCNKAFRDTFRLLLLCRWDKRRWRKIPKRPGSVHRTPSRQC
Also: assay procedure not described here.

Chain of Prostaglandin G/H synthase 1 (P23219 whole entry): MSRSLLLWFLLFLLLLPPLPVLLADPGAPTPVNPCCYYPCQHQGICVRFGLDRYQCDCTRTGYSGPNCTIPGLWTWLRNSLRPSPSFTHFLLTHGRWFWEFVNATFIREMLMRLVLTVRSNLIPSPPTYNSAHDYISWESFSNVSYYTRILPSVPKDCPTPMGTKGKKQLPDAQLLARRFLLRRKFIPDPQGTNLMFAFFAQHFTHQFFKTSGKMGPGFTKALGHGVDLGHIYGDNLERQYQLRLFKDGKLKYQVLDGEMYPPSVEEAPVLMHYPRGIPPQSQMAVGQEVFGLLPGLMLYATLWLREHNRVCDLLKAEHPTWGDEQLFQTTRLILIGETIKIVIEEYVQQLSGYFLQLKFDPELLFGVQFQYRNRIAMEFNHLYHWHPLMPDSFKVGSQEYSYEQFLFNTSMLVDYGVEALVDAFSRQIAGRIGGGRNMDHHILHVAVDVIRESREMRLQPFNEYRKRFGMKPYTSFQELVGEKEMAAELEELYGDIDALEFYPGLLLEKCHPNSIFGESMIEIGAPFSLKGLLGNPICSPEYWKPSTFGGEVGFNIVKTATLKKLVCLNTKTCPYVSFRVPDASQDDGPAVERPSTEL
T5 sequence (P21554 whole entry): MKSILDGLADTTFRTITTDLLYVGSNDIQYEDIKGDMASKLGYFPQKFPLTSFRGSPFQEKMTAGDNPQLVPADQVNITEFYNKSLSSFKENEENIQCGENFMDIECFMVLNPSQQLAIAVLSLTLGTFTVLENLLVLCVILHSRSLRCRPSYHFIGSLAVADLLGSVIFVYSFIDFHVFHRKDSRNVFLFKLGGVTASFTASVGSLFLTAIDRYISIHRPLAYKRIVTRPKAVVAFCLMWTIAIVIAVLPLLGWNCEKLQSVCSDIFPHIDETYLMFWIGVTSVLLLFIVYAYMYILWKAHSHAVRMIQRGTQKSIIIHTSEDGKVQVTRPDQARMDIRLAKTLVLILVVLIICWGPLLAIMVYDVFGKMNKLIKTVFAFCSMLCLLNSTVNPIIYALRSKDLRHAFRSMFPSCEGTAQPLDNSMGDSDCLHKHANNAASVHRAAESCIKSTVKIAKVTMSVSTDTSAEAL
Chain of Vasopressin V1a receptor (P37288 whole entry): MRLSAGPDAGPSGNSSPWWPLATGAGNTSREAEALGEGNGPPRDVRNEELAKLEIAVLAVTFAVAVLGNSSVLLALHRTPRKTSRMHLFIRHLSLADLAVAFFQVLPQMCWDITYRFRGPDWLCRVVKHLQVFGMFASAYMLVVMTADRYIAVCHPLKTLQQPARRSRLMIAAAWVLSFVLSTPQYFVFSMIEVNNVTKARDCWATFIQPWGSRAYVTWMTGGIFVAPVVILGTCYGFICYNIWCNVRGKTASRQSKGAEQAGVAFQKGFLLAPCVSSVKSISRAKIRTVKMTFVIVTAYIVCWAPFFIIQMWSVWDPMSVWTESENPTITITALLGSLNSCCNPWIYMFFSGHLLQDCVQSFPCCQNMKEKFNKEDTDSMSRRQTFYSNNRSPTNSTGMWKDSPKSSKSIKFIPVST

| SMILES | AC50 (Androgen receptor) [µM] | AC50 [1] [µM] | AC50 (Thromboxane A2 receptor) [µM] | AC50 [2] [µM] | AC50 (Cannabinoid receptor 1 [3]) [µM] | AC50 (Cannabinoid receptor 1 [4]) [µM] | AC50 [5] [µM] | AC50 (Vasopressin V1a receptor) [µM] | AC50 [6] [µM] |
| --- | --- | --- | --- | --- | --- | --- | --- | --- | --- |
| C[C@@H]1C[C@H]2[C@@H]3C[C@H](F)C4=CC(=O)C=C[C@]4(C)[C@@]3(F)[C@@H](O)C[C@]2(C)[C@@]1(OC(=O)c1ccco1)C(=O)SCF [FLUTICASONE FUROATE] | 0.13 | > 10 | > 10 | > 10 | > 30 | > 30 | 27.7 | > 10 | > 30 |
| CC(OCCN1CCCCCC1)(c1ccccc1)c1ccc(Cl)cc1 (stereo unspecified) [SETASTINE] | > 30 |  |  |  |  |  | > 30 |  | 0.493 |
| COc1cc(C)c2c(Oc3cccc(C(F)(F)F)c3)c(OC)cc(NC(C)CCCN)c2n1 (stereo unspecified) [TAFENOQUINE] | > 30 |  |  |  |  |  | 9.38 |  | > 3 |
| CCCSc1nc(N[C@@H]2C[C@H]2c2ccc(F)c(F)c2)c2nnn([C@@H]3C[C@H](OCCO)[C@@H](O)[C@H]3O)c2n1 [TICAGRELOR] | > 30 |  |  |  |  |  | > 30 |  | 8.29 |
| c1ccc2c(SC3=NCCN3)c[nH]c2c1 [TINAZOLINE] | > 30 |  |  |  |  |  | > 30 |  | > 30 |
